The values that follow come from publication PMC12738789, “Synthesis of an enhanced nanobiocatalyst system from Aspergillus niger as single green source” (Scientific Reports, 2025).

This assay relates to T1, Aspergillus niger ATCC 16,878 lipase.
T1 construct: gene lipA
In words: spectrophotometric p-nitrophenol release at […] nm, nonlinear Michaelis-Menten fit. It is filed as biochemical. The settings on record: free enzyme; 0.1-1 mM pNPP; standard assay 0.1 M potassium phosphate pH 7.5, 37 °C, 2% Triton X-100.

As usually defined, the Km is the substrate concentration at which the rate is half of its maximum.

As to `CCCCCCCCCCCCCCCC(=O)Oc1ccc([N+](=O)[O-])cc1` [4-nitrophenyl palmitate], the Km is 147 µM.
